Measurements taken from ChEMBL document CHEMBL1150907, “Epolones: novel sesquiterpene-tropolones from fungus OS-F69284 that induce erythropoietin in human cells” (1998).

Legend:
[1] = test system: Hep 3B2; test: Induction of human erythropoietin gene expression in human Hep3B cells over expressing human EPO assessed as concentration required to produce 5-fold induction ratio by luciferase reporter gene assay relative to control; assay type: functional
[2] = test system: Hep 3B2; test: Induction of erythropoietin secretion in human Hep3B cells expressing human EPO at 10 uM by ELISA; assay type: functional
[3] = Cytotoxicity against human Hep3B cells after 48 hrs by MTT assay; assay type: functional, Hep 3B2
[4] = test system: Hep 3B2; test: Induction of human erythropoietin gene expression in human Hep3B cells over expressing human EPO assessed as maximum induction ratio at 6.5 uM by luciferase reporter gene assay relative to control; assay type: functional
[5] = test system: Hep 3B2; test: Induction of human erythropoietin gene expression in human Hep3B cells over expressing human EPO assessed as maximum induction ratio at 4.3 uM by luciferase reporter gene assay relative to control; assay type: functional

## C/C1=C\CC(C)(C)/C=C/C[C@@]2(C)Oc3cc(O)c(=O)cc(C)c3C[C@@H]2C[C@H]1O [EPOLONE B]
[1]
  Activity: 1.5 µM
[2]
  Activity: 40 mU/ml
[3]
  IC90: > 40 µM
[4]
  Ratio: 22

## Cc1cc(=O)c(O)cc2c1C[C@H]1CC(C)(C)/C=C/C[C@@]3(C)Oc4cc(O)cc(C)c4C[C@@H]3C[C@H](O)[C@]1(C)O2 [EPOLONE A]
[1]
  Activity: 1 µM
[5]
  Ratio: 26
[2]
  Activity: 45 mU/ml
[3]
  IC90: > 40 µM

## Cc1cc(=O)c(O)cc2c1C[C@H]1CC(C)(C)/C=C/C[C@@]3(C)Oc4cc(O)c(=O)cc(C)c4C[C@@H]3C[C@H](O)[C@]1(C)O2 [PYCNIDIONE]
[1]
  Activity: 1.6 µM
[5]
  Ratio: 19
[2]
  Activity: 34 mU/ml
[3]
  IC90: > 40 µM
